The values that follow come from ChEMBL document CHEMBL5715954, “Silencing c-Myc translation as a therapeutic strategy through targeting PI3Kδ and CK1ε in hematological malignancies” (Blood, 2017).

Holding throughout (set-up): scale not given: the % may be the effect or the level left
Assay [1] addresses Proto-oncogene tyrosine-protein kinase Src (Homo sapiens) (UniProt P12931). The assay is described as follows: Inhibition of human c-Src assessed as enzyme activity at 1 uM using poly[Glu:Tyr] (4:1) as substrate preincubated for 20 mins followed by [gamma-33P]-ATP addition and measured after 120 mins by radiometric Hot-SpotSM Kinase assay relative to control.
Assay [2] deals with Serine/threonine-protein kinase 32C (Homo sapiens) (UniProt Q86UX6). Briefly: Inhibition of human STK32C assessed as enzyme activity at 1 uM using myelin basic protein as substrate preincubated for 20 mins followed by [gamma-33P]-ATP addition and measured after 120 mins by radiometric Hot-SpotSM Kinase assay relative to control.
In assay [3] the target is T1, Serine/threonine-protein kinase A-Raf (Homo sapiens) (UniProt P10398).
T1 sequence (whole entry): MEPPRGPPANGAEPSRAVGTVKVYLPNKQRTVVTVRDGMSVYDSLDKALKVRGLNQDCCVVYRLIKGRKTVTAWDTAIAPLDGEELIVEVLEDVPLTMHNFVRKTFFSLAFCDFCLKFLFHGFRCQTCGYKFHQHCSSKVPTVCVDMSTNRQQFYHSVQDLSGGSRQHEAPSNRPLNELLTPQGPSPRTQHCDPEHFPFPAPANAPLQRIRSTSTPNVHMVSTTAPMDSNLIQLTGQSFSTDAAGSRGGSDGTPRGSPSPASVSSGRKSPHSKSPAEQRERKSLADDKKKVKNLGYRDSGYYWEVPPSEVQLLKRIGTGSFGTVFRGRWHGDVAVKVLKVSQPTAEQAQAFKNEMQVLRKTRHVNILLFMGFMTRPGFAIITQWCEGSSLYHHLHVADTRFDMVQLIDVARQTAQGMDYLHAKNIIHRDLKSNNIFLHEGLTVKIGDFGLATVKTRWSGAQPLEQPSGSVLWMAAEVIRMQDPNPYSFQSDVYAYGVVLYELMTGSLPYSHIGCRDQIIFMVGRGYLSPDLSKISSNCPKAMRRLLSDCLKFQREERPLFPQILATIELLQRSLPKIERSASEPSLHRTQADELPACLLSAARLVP
Briefly: Inhibition of human ARAF assessed as enzyme activity at 1 uM using MEK1 (K97R) as substrate preincubated for 20 mins followed by [gamma-33P]-ATP addition and measured after 120 mins by radiometric Hot-SpotSM Kinase assay relative to control.

Assay [4] has as its target Serine/threonine-protein kinase Nek6 (Homo sapiens) (UniProt Q9HC98). Briefly: Inhibition of human NEK6 assessed as enzyme activity at 1 uM using casein as substrate preincubated for 20 mins followed by [gamma-33P]-ATP addition and measured after 120 mins by radiometric Hot-SpotSM Kinase assay relative to control.
The target of assay [5] is Dual specificity mitogen-activated protein kinase kinase 2 (Homo sapiens) (UniProt P36507). Briefly: Inhibition of human MEK2 assessed as enzyme activity at 1 uM using ERK2 (K52R) as substrate preincubated for 20 mins followed by [gamma-33P]-ATP addition and measured after 120 mins by radiometric Hot-SpotSM Kinase assay relative to control.
Assay [6] has as its target Mitogen-activated protein kinase 10 (Homo sapiens) (UniProt P53779). The assay is described as follows: Inhibition of human JNK3 assessed as enzyme activity at 1 uM using ATF2 as substrate preincubated for 20 mins followed by [gamma-33P]-ATP addition and measured after 120 mins by radiometric Hot-SpotSM Kinase assay relative to control.
Assay [7] addresses T2, Mitogen-activated protein kinase kinase kinase 5 (Homo sapiens) (UniProt Q99683).
T2 sequence (whole entry): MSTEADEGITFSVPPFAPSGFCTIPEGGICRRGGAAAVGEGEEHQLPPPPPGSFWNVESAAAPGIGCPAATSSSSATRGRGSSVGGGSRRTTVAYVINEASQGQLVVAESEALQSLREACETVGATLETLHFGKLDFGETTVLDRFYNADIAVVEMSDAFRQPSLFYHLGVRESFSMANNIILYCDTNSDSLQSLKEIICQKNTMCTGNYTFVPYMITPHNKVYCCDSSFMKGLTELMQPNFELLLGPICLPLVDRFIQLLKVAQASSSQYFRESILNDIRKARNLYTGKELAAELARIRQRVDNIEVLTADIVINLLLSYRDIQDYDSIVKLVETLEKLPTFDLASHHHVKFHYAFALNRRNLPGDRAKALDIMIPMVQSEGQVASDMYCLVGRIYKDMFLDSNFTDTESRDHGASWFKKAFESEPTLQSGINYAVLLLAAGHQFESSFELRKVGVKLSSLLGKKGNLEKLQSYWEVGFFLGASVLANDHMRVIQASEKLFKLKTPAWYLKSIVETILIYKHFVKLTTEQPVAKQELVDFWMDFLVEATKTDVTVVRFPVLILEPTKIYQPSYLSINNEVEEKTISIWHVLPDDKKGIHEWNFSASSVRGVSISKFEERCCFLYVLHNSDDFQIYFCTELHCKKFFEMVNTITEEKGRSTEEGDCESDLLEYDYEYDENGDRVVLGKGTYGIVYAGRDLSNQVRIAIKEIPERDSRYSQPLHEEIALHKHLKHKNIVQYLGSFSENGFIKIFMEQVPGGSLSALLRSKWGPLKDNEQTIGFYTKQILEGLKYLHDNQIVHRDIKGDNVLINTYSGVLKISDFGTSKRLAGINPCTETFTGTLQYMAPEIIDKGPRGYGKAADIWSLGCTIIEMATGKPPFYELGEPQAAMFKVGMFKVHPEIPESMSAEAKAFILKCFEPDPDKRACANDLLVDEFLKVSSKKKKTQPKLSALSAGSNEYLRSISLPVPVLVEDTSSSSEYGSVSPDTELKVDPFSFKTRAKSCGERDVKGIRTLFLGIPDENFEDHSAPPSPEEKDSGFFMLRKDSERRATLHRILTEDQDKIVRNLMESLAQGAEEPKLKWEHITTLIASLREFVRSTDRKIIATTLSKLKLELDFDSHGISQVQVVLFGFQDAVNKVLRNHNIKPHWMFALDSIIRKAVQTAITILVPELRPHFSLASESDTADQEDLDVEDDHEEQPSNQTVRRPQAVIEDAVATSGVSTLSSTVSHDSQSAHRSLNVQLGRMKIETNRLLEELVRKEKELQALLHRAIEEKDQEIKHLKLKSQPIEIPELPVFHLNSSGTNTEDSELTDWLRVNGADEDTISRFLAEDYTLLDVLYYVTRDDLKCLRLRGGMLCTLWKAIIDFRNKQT
Briefly: Inhibition of human ASK1 assessed as enzyme activity at 1 uM using myelin basic protein as substrate preincubated for 20 mins followed by [gamma-33P]-ATP addition and measured after 120 mins by radiometric Hot-SpotSM Kinase assay relative to control.

In the case of `C[C@H](Nc1ncnc2nc[nH]c12)c1cc2cccc(Cl)c2c(=O)n1-c1ccccc1`, the Activity in assay [1] was 86.7%; in assay [2], 94.3%; in assay [3] it was 86.4%; in assay [4], 92.6%; in assay [5] it was 90%; in assay [6] it was 96.6%. Further, in assay [7], the Activity came to 97.7%.
In the case of `CC[C@H](Nc1ncnc2[nH]cnc12)c1nc2cccc(F)c2c(=O)n1-c1ccccc1`, the Activity in assay [1] turned out to be 85.2%; in assay [2] it was 105%; in assay [3], 92.3%; in assay [4] it was 93.2%; in assay [5], 91.5%; in assay [6] it was 96%. Besides, the Activity in assay [7] was determined as 102%.
`CC(C)Oc1ccc(-c2nn([C@@H](C)c3oc4ccc(F)cc4c(=O)c3-c3cccc(F)c3)c3ncnc(N)c23)cc1F` [UMBRALISIB]: the Activity in assay [1] turned out to be 87.6%; in assay [2] it was 111%; in assay [3], 84.4%; in assay [4], 97.7%; in assay [5] it was 90.4%; in assay [6], 95.6%. In addition, the Activity in assay [7] stood at 98.4%.
